One assay has as its system Murine MC3T3-E1 cells. Kind of assay: Collagen maturity assay in MC3T3-E1 cultures (Example 2). In kind it is cell-based. To be noted: MC3T3-E1 cultures, 200 nM, vs vehicle (FIG. 2). The procedure: At confluence, the propagation medium was replaced by the differentiation medium containing αMEM supplemented with 5% FBS, 5% bovine calf serum, 100 U/mL penicillin, 100 μg/mL streptomycin, 50 μg/ml ascorbic acid and various concentrations of analogues. This day was considered as day 1. The differentiation medium was replenished every two days. […] Cultures were rinsed at least six times with milliQ water, fixed in absolute ethanol, scrapped off the culture dish and transferred onto BaF2 windows where they were air-dried. Integrity of the collagen extracellular matrix was verified by comparing the obtained Fourier transform infrared spectrum with those of commercial collagen. Spectral analysis was performed using a Bruker Vertex 70 spectrometer (Bruker optics, Ettlingen, Germany) interfaced with a Bruker Hyperion 3000 infrared microscope equipped with a standard single element Mercury Cadmium Telluride (MCT) detector. Infrared spectra were recorded at a resolution of 4 cm^−1, with an average of 32 scans in transmission mode. Background spectral images were collected under identical conditions from the same BaF2 windows at the beginning and end of each experiment to ensure instrument stability. At least 20 spectra were acquired for each condition and analyzed with a lab-made routine script in Matlab R2016b (The Mathworks, Natick, MA).

The target of the next assay is T1, human GLP-2r (Homo sapiens, UniProt O95838).
T1 construct: host or cells: HEK-293
T1 sequence (O95838 1-553): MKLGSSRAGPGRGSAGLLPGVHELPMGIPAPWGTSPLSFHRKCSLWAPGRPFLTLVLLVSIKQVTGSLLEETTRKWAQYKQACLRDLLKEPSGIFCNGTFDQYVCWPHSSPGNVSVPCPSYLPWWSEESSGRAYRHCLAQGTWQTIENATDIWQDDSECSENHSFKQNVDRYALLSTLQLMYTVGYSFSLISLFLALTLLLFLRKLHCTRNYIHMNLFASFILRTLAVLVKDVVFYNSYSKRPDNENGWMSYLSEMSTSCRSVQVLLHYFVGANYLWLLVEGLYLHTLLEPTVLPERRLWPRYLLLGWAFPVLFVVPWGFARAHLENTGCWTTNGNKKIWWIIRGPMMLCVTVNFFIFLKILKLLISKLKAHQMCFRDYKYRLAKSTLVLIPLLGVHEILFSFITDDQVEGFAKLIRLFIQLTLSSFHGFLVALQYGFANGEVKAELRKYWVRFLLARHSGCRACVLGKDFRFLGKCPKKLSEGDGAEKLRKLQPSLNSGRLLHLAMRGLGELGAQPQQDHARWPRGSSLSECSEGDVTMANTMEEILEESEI
Kind of assay: Cyclic AMP assay (FRET, H74 probe), HEK-293 transfected with human GLP-2r. The assay is classed as cell-based. The settings on record: HEK 293 transfected only with human GLP-2r, 10^-9 M, 30 min (FIG. 17). The procedure:
(§1) Human HEK-293 cells were plated at a density of 2×10^5 cells/cm^2 in 4 well microslides (ibidi GmbH, Martinsried, Germany). […] Jalink (Netherland Cancer Institute, Amsterdam, Netherland). […] The image acquisition was performed with a 63 X, 1.4 N.A. oil immersion objective and a Hybrid® detector (Leica) and images were collected after 30 minutes. Donor excitation was made with a 458 nm Ar laser, donor emission was collected between 460-505 nm and acceptor emission between 520-600 nm by setting the SP8 spectrometer accordingly. FRET was expressed as the ratio between donor and acceptor signals.

The subject of assay [1] is human GIPr and the human GLP-2r. Description: Cyclic AMP assay (FRET, H74 probe), HEK-293 co-transfected with human GIPr and human GLP-2r. The assay is classed as cell-based. To be noted: HEK 293 co-transfected with human GIPr and human GLP-2r, 10^-9 M, 30 min (FIG. 18). The protocol:
as §1

Assay [2] deals with human peripheral blood mononuclear cells. Description: Human osteoclast formation from peripheral blood mononuclear cells. In kind it is cell-based. The settings on record: human PBMC, M-CSF 25 ng/ml + sRANKL 50 ng/ml, 1 nM peptide (FIG. 3). The protocol: Human peripheral blood mononuclear cells were isolated from 3 buffy coats obtained at the Etablissement Francais du Sang (Angers, France) as described in Mabilleau and Sabokbar (2009) PLoS One 4:e4173. Blood was diluted 1:1 in α-minimal essential medium (MEM) (Invitrogen, Paisley, UK), layered over Histopaque and centrifuged (700×g) for 20 min. The interface layer was resuspended in MEM then centrifuged (600×g) for a further 10 min after which the resultant cells were resuspended in media supplemented with 10% heat inactivated foetal calf serum (FCS, Invitrogen, Paisley, UK) and counted in a haemocytometer following lysis of red blood cells using a 5% (v/v) acetic acid solution. […] (2011) J Biol Chem 286:3242-3249). After 2 h incubation, cultures were vigorously rinsed in medium to remove non-adherent cells, and then maintained in 1 ml MEM/FCS with 25 ng/ml recombinant human M-CSF, 50 ng/ml recombinant human sRANKL (added at day 7) and various concentrations of gut hormone analogues (added at day 7). Cultures were terminated after 14 days to assess the extent of osteoclast formation (TRAcP staining as described below). All factors were replenished every 2-3 days. […] Cultures were rinsed three times in distilled water and the residual activity was inhibited by 4% NaF for 30 minutes. […] The number of newly generated were assessed using light microscopic examination.

Assay [3] relates to MC3T3-E1 subclone 4 cells. The assay is classed as cell-based, murine. The protocol:
Briefly, MC3T3-E1 subclone 4 cells have been grown and propagated in α-MEM supplemented with 5% fetal bovine serum (FBS), 5% bovine calf serum (BCS), 100 U/mL penicillin, and 100 μg/mL streptomycin in a humidified atmosphere enriched with 5% CO2 at 37° C. […] This day was considered as day 1. The differentiation medium was replenished every two days. […] Cultures were rinsed at least six times with milliQ water, fixed in absolute ethanol, scrapped off the culture dish and transferred onto BaF2 windows where they were air-dried. Integrity of the collagen extracellular matrix was verified by comparing the obtained Fourier transform infrared spectrum with those of commercial collagen. Spectral analysis was performed using a Bruker Vertex 70 spectrometer (Bruker optics, Ettlingen, Germany) interfaced with a Bruker Hyperion 3000 infrared microscope equipped with a standard single element Mercury Cadmium Telluride (MCT) detector. Calibration of the infrared spectrometer is done once a week with a polystyrene film standard (Bruker optics). Infrared spectra were recorded at a resolution of 4 cm^-1, with an average of 32 scans in transmission mode. Background spectral images were collected under identical conditions from the same BaF2 windows at the beginning and end of each experiment to ensure instrument stability. At least 5 spectra were acquired for each condition and analyzed with a lab-made routine script (version 2.0) in Matlab R2016b (The Mathworks, Natick, MA). […] For GIP and GLP-2 dataset, the inventors used the collagen maturity data previously acquired and analyzed. First of all, collagen maturity obtained in control cultures, i.e. in the absence of double GIP/GLP-2 analogues, were averaged and subtracted to the all dataset. […] For each concentration of peptide, the mean, SD and number of events were computed. […] The GraphPad Prism analysis consisted in: […] Statistical Analysis […] Data are represented as mean±SD.

In another assay the test system is Murine Raw 264.7 cells. In kind it is cell-based. The procedure:
Murine Raw 264.7 cells were grown and expanded in propagation medium containing Dulbecco's modified Eagle medium (DMEM-Gibco) supplemented with 10% fetal bovine serum (FBS-Lonza), 100 U/mL penicillin and 100 μg/mL streptomycin (Gibco) in a humidified atmosphere enriched with 5% CO2 at 37° C. The first passage after thawing Raw 264.7 cells was considered as passage 1. Cells were used up to passage 8. […] Cultures were rinsed three times in distilled water and the residual activity was inhibited by 4% NaF (Sigma-Aldrich) for 30 min. Cells were then rinsed in distilled water and allowed to dry. TRAcP positive cells, with more than three nuclei, were identified as osteoclasts. The number of newly generated osteoclasts was assessed using light microscopic examination by a histologist that was blinded to the treatment intervention. […] For each concentration of peptide, the mean, SD and number of events were computed.

The EC50 is the concentration at which the effect is half-maximal. A lower EC50 goes with a more potent agent.

For `CC[C@H](C)[C@H](NC(=O)[C@H](Cc1ccccc1)NC(=O)[C@H](CC(=O)O)NC(=O)[C@H](CCCNC(=N)N)NC(=O)[C@H](C)NC(=O)[C@H](C)NC(=O)[C@H](CC(C)C)NC(=O)[C@H](CC(N)=O)NC(=O)[C@H](CC(=O)O)NC(=O)[C@H](CC(C)C)NC(=O)[C@@H](NC(=O)[C@@H](NC(=O)[C@H](CC(N)=O)NC(=O)[C@H](CCSC)NC(=O)[C@H](CCC(=O)O)NC(=O)[C@H](CC(=O)O)NC(=O)[C@H](CO)NC(=O)[C@H](Cc1ccccc1)NC(=O)[C@H](CO)NC(=O)CNC(=O)[C@H](CC(=O)O)NC(=O)CNC(=O)[C@@H](N)Cc1c[nH]cn1)[C@@H](C)O)[C@@H](C)CC)C(=O)N[C@@H](CC(N)=O)C(=O)N[C@@H](Cc1c[nH]c2ccccc12)C(=O)N[C@@H](CC(C)C)C(=O)N[C@H](C(=O)N[C@@H](CCC(N)=O)C(=O)N[C@H](C(=O)N[C@@H](CCCCN)C(=O)N[C@H](C(=O)N[C@H](C(=O)N[C@@H](CC(=O)O)C(=O)O)[C@@H](C)O)[C@@H](C)CC)[C@@H](C)O)[C@@H](C)CC` [[Gly^2]GLP-2], the “increase in collagen maturity” value in the assay with Murine MC3T3-E1 cells is recorded as roughly 111%. Also, the “intracellular levels of cAMP” value (at human GLP-2r; in assay [1]) was “increased intracellular levels of cAMP” in each case. Besides, in assay [2], the “reduction in osteoclast formation” value stood at 34%. The EC50 in assay [3] is 0.063 ± 0.042 nM; in the assay with Murine Raw 264.7 cells, 0.0322 nM. Moreover, in assay [3] (MC3T3-E1, day 14), the “Emax for dose-effect curves on collagen maturity” value was 119.3%. Further, in the assay with Murine Raw 264.7 cells (Raw 264.7, RANKL 10 ng/ml, 110 h, * values determined from previous experiments, in pM), the “IC50 computed from curve fitting of osteoclastogenesis vs. peptide concentration” value is recorded as 32.2*. Moreover, the “Emax, maximum inhibitory effect on osteoclastogenesis” value in the assay with Murine Raw 264.7 cells (Raw 264.7, * data obtained in previous experiments) is 68.12* %.

The record behind these values is US12617831B2 (UNIVERSITE D'ANGERS, priority 2019, dated 2026).
